From ChEMBL document CHEMBL2429748, “DFT-based prediction of antifungal and insecticidal activities of perfluorophenyl antimony(III) and antimony(V) chlorides” (Med Chem Res, 2013)

Key:
Assay type in all cases: functional, organism-based
Aspergillus flavus [1] = assay: Antifungal activity against Aspergillus flavus assessed as growth inhibition at 50 ug/mL by agar diffusion method relative to control
Aspergillus flavus [2] = assay: Antifungal activity against Aspergillus flavus assessed as growth inhibition at 20 ug/mL by agar diffusion method relative to control
Aspergillus flavus [3] = assay: Antifungal activity against Aspergillus flavus assessed as growth inhibition at 10 ug/mL by agar diffusion method relative to control
Aspergillus niger [4] = assay: Antifungal activity against Aspergillus niger assessed as growth inhibition at 100 ug/mL by agar diffusion method relative to control
Aspergillus niger [5] = assay: Antifungal activity against Aspergillus niger assessed as growth inhibition at 20 ug/mL by agar diffusion method relative to control
Aspergillus niger [6] = assay: Antifungal activity against Aspergillus niger assessed as growth inhibition at 50 ug/mL by agar diffusion method relative to control
Aspergillus flavus [7] = assay: Antifungal activity against Aspergillus flavus assessed as growth inhibition at 100 ug/mL by agar diffusion method relative to control
Aspergillus niger [8] = assay: Antifungal activity against Aspergillus niger assessed as growth inhibition at 10 ug/mL by agar diffusion method relative to control

Substance	growth inhibition (GI) (Aspergillus flavus [1]) [%]	growth inhibition (GI) (Aspergillus flavus [2]) [%]	growth inhibition (GI) (Aspergillus flavus [3]) [%]	growth inhibition (GI) (Aspergillus niger [4]) [%]	growth inhibition (GI) (Aspergillus niger [5]) [%]	growth inhibition (GI) (Aspergillus niger [6]) [%]	growth inhibition (GI) (Aspergillus flavus [7]) [%]	growth inhibition (GI) (Aspergillus niger [8]) [%]
tetrachloro(pentafluorophenyl)-{5}-stibane	86.7	80	73.3	90	40	75	93.3	30
dichlorotris(pentafluorophenyl)-{5}-stibane	73.3	66.6	60	80	50	60	83.3	30
tris(perfluorophenyl)stibine	80	66.6	60	90	50	75	86.7	50
trichlorobis(pentafluorophenyl)-{5}-stibane	83.3	76.6	60	75	40	60	96.7	25
chloro(ethyl)tris(pentafluorophenyl)-{5}-stibane	83.3	73.3	66.6	95	75	80	96.7	60
chlorobis(perfluorophenyl)stibine	76.6	66.6	53.3	95	50	70	86.7	25
dichloro(perfluorophenyl)stibine	66.6	60	53.3	90	60	75	73.3	50
